The values that follow come from US5444085A, “Methods of inhibiting HIV and inhibiting the activation of HIV” (Warner-Lambert Company, priority 1994, dated 1995).

In experiment [1] the test system is OM-10.1 cells (HIV-1 activation). The conditions noted are these: poster Nov. 3-7 1991; cited from earlier work.
Another experiment concerns HIV-infected cells. The conditions noted are these: Hamamoto et al. 1989; cited from earlier work.
The test system of experiment [2] is OM-10.1 cells (HIV-1 activation). The experiment in a line: Supernatant reverse transcriptase activity / HIV-1 activation in OM-10.1 cultures pretreated with test compound then TNF-α induced (Example 1). It is filed as cell-based. The conditions noted are these: for stimulation index (SI) value of the reverse transcriptase activity: TNF-α treated vs non-TNF-α medium culture. From the text:
The cellular pathways involved in mediating the activating signal from the plasma membrane to the integrated virus, resulting in HIV-1 expression, are much less clear. Recently, the development of a reliable and simple system for evaluating compounds that could prevent activation of latent HIV was reported at the National […] (NCDDG)/AIDS by P. Feorino, S. T. Butera, T. M. Folks, and R. F. Schinazi, San Diego, Calif., Nov. 3-7, 1991. […] The expression of CD4+ on the cell surface and the activity of reverse transcriptase are used as markers for quantitating viral expression. Alternatively, other HIV markers, such as protease activity, which are known to those of skill in the art can be used. OM-10.1 cells remain CD4^+ until viral activation and respond to tumor necrosis factor induction, and therefore, these cultures are used to conveniently and rapidly examine pharmacologics for an ability to prevent CD4^+ down modulation (decrease in expression of CD4^+ on the cell surface) and HIV-1 expression.
Example 1 was performed as described by Butera ST, et al., J. Virol. 1991;65:4645-4653. Test compounds were first dissolved in 100% DMSO to the indicated stock concentrations below in Table I. The stock solution was then diluted in tissue culture starting at 1:100(10/-2) and proceeding on as indicated.
OM-10.1 cells were then pretreated for 4 hours with the test compounds prior to TNF-α induction. TNF-α was added at 20 U/ml and induced cells were examined at 24 hours for evidence of surface CD4 down-modulation, as an indication of viral activation. Cells were also harvested after 24 hours of TNF-α induction for drug toxicity, being labeled with ^3 H thymidine during the final 18 hours in culture. At […], cell-free culture supernatant was collected for reverse transcriptase determination, as a further verification of the extent of HIV-1 activation. CD4 surface staining for flow cytometry and reverse transcriptase analysis were performed as described.

The test system of the next experiment is OM-10.1 cells. The experiment is described as follows: Return to latency of TNF-α pre-activated OM-10.1 cells, percent CD4-positive cells by flow cytometry (Example 2). It counts as cell-based. How it is done: Moreover, in Example 2 the experiment was extended through 96 hours after the removal of TNF-α.

Regarding `Cc1cn([C@H]2C[C@H](F)[C@@H](CO)O2)c(=O)[nH]c1=O` [3'-fluoro-3'-deoxythymidine (FLT), 3'-fluoro-3'-deoxythymidine], in experiment [1], the “inhibition of the activation of HIV-1” value was “modest inhibitors of the activation of HIV-1”.
In the case of `CCCCCCCCCCCCCC(=O)O[C@@H]1[C@@H](C)[C@@]2(O)[C@@H](C=C(CO)C[C@]3(O)C(=O)C(C)=C[C@@H]23)[C@@H]2C(C)(C)[C@]12OC(C)=O` [12-O-tetradecanoyl-phorbol-13-acetate], the “CD4 down regulation and viral expression” value in the experiment on HIV-infected cells was “mediates CD4 down regulation and viral expression in HIV-infected cells”.
`COc1ccc2c(c1)c(OC(C)C)c(C(N)=O)[s+]2[O-]` (stereo not drawn) [Test Compound B, 5-methoxy-3-(1-methylethoxy)benzothiophene-2-carboxamide-, 1-oxide]: in experiment [2] (Human immunodeficiency virus 1, dilution 1:10 6 (A 19.5 nM; B 35.0 nM), TNF-α 20 U/ml, read-out: percent inhibition of the reverse transcriptase activity), the inhibition at 0.035 µM worked out at 0%. Besides, the inhibition at 17.75 µM in experiment [2] (Human immunodeficiency virus 1, dilution 1:2000 (A 10.0 μM; B 17.75 μM), TNF-α 20 U/ml, read-out: percent inhibition of the reverse transcriptase activity) worked out at 72.9%. Moreover, in experiment [2] (Human immunodeficiency virus 1, dilution 1:4000 (A 5.0 μM; B 8.88 μM), TNF-α 20 U/ml, read-out: percent inhibition of the reverse transcriptase activity), the inhibition at 8.88 µM stood at 44%. Further, the inhibition at 4.44 µM in experiment [2] (Human immunodeficiency virus 1, dilution 1:8000 (A 2.5 μM; B 4.44 μM), TNF-α 20 U/ml, read-out: percent inhibition of the reverse transcriptase activity) amounted to 26.4%. For the same molecule, the inhibition at 2.22 µM in experiment [2] (Human immunodeficiency virus 1, dilution 1:16,000 (A 1.25 μM; B 2.22 μM), TNF-α 20 U/ml, read-out: percent inhibition of the reverse transcriptase activity) was determined as 18.2%. Further, the inhibition at 1.11 µM in experiment [2] (Human immunodeficiency virus 1, dilution 1:32,000 (A 0.62 μM; B 1.11 μM), TNF-α 20 U/ml, read-out: percent inhibition of the reverse transcriptase activity) came out at 19.6%. The inhibition at 0.55 µM in experiment [2] (Human immunodeficiency virus 1, dilution 1:64,000 (A 0.31 μM; B 0.55 μM), TNF-α 20 U/ml, read-out: percent inhibition of the reverse transcriptase activity) was 0.68%. Also, the inhibition at 0.28 µM in experiment [2] (Human immunodeficiency virus 1, dilution 1:128,000 (A 0.16 μM; B 0.28 μM), TNF-α 20 U/ml, read-out: percent inhibition of the reverse transcriptase activity) stood at 3.67%. The inhibition at 0.14 µM in experiment [2] (Human immunodeficiency virus 1, dilution 1:256,000 (A 78.0 nM; B 0.14 μM), TNF-α 20 U/ml, read-out: percent inhibition of the reverse transcriptase activity) amounted to 11.5%. The inhibition at 0.07 µM in experiment [2] (Human immunodeficiency virus 1, dilution 1:512,000 (A 39.0 nM; B 70.0 nM), TNF-α 20 U/ml, read-out: percent inhibition of the reverse transcriptase activity) was found to be 1.55%. Also, the “anti-induction activity in the OM-10.1 cell system” value in experiment [2] (TNF-α induced) was “appeared to have anti-induction activity”. Also, the “inhibition of HIV-1 activation” value in experiment [2] (concentrations between 10 and 1 μM) is recorded as “effective at substantially inhibiting HIV-1 activation”. In addition, the “mean reverse transcriptase cpm values” is recorded as 30,025 cpm in experiment [2] (dilution 1:10 6 (A 19.5 nM; B 35.0 nM), TNF-α 20 U/ml); 7,725 cpm in experiment [2] (dilution 1:2000 (A 10.0 μM; B 17.75 μM), TNF-α 20 U/ml); 15,984 cpm in experiment [2] (dilution 1:4000 (A 5.0 μM; B 8.88 μM), TNF-α 20 U/ml); 21,009 cpm in experiment [2] (dilution 1:8000 (A […]; B 4.44 μM), TNF-α 20 U/ml); 23,336 cpm in experiment [2] (dilution 1:16,000 (A 1.25 μM; B 2.22 μM), TNF-α 20 U/ml); 22,931 cpm in experiment [2] (dilution 1:32,000 (A 0.62 μM; B 1.11 μM), TNF-α 20 U/ml). Moreover, the “mean reverse transcriptase cpm values” was 28,334 cpm in experiment [2] (dilution 1:64,000 (A 0.31 μM; B 0.55 μM), TNF-α 20 U/ml); 27,480 cpm in experiment [2] (dilution 1:128,000 (A 0.16 μM; B 0.28 μM), TNF-α 20 U/ml); 25,257 cpm in experiment [2] (dilution 1:256,000 (A 78.0 nM; B 0.14 μM), TNF-α 20 U/ml); 28,085 cpm in experiment [2] (dilution 1:512,000 (A 39.0 nM; B 70.0 nM), TNF-α 20 U/ml). Besides, the “stimulation index (SI) value of the reverse transcriptase activity” value is listed as 8.28 in experiment [2] (dilution 1:10 6 (A 19.5 nM; B 35.0 nM)); 2.13 in experiment [2] (dilution 1:2000 (A 10.0 μM; B 17.75 μM)); 4.41 in experiment [2] (dilution 1:4000 (A 5.0 μM; B 8.88 μM)); 5.80 in experiment [2] (dilution 1:8000 (A […]; B 4.44 μM)); 6.44 in experiment [2] (dilution 1:16,000 (A 1.25 μM; B 2.22 μM)); 6.33 in experiment [2] (dilution 1:32,000 (A 0.62 μM; B 1.11 μM)). For the same molecule, the “stimulation index (SI) value of the reverse transcriptase activity” value in experiment [2] (dilution 1:64,000 (A 0.31 μM; B 0.55 μM)) was 7.82; in experiment [2] (dilution 1:128,000 (A 0.16 μM; B 0.28 μM)) it was 7.58; in experiment [2] (dilution 1:256,000 (A 78.0 nM; B 0.14 μM)), 6.97; in experiment [2] (dilution 1:512,000 (A 39.0 nM; B 70.0 nM)), 7.75. Further, the “percent CD4-positive cells” value in the experiment on OM-10.1 cells (0.5 μM, 24 hours) was found to be 5.3%; in the experiment on OM-10.1 cells (0.5 μM, 48 hours), 20.6%; in the experiment on OM-10.1 cells (0.5 μM, 72 hours), 47.9%; with OM-10.1 cells (0.5 μM, 96 hours) it was 75.1%; in the experiment with OM-10.1 cells (0.5 μM, T-0 (after 24 hours TNF-α, before compound)), 4.0%; in the experiment on OM-10.1 cells (0.5 μM, T-24 (baseline, before TNF-α and compound)), 89.0%. The “percent CD4-positive cells” value in the experiment with OM-10.1 cells (10 μM, 24 hours) was 33.5%; in the experiment on OM-10.1 cells (10 μM, 48 hours), 96.5%; with OM-10.1 cells (10 μM, 72 hours), 97.6%; in the experiment with OM-10.1 cells (10 μM, 96 hours), 98.7%; in the experiment on OM-10.1 cells (10 μM, T-0 (after 24 hours TNF-α, before compound)), 4.0%; in the experiment with OM-10.1 cells (10 μM, T-24 (baseline, before TNF-α and compound)), 89.0%.
Take `CC(=O)N(O)CCCCCNC(=O)CCC(=O)N(O)CCCCCNC(=O)CCC(=O)N(O)CCCCCN` [desferrioxamine]: the “inhibition of the activation of HIV-1” value in experiment [1] is “modest inhibitors of the activation of HIV-1”.

B1: interferon Y: interferon Y (protein, UniProt P01579 24-161, looked up)
Interferon gamma: QDPYVKEAENLKKYFNAGHSDVADNGTLFLGILKNWKEESDRKIMQSQIVSFYFKLFKNFKDDQSIQKSVETIKEDMNVKFFNSNKKKRDDFEKLTNYSVTDLNVQRKAIHELIQVMAELSPAAKTGKRKRSQMLFRG
B1: the “inhibition of the activation of HIV-1” value in experiment [1] is reported as “modest inhibitors of the activation of HIV-1”.
